Reference: US10947222B2, “Indole derivatives useful as inhibitors of diacylglyceride O-acyltransferase 2” (Merck Sharp & Dohme Corp., priority 2016, dated 2021)

Biological target: human DGAT2 (hDGAT2) (Homo sapiens (Human), UniProt Q96PD7)
Assay: DGAT2 enzymatic activity assay (triolein formation, LC/MS/MS)
Format: biochemical
Conditions: Sf-9 membrane prep expressing hDGAT2; 25 μM diolein, 10 μM oleoyl-CoA; triolein by LC/MS/MS
Description: Sf-9 insect cells were maintained in Grace's insect cell culture medium with 10% heated-inactivated fetal bovine serum, 1% Pluronic F-68 and 0.14 μg/ml Kanamycine sulfate in Erlenmeyer flasks at 28° C. in a shaker incubator. After infection with untagged baculovirus expressing human DGAT2 (hDGAT2) at multiplicity of infection (MOI) 0.1 for 48 hours, cells were harvested. Cell pellets were suspended in buffer containing 10 mM Tris-HCl (pH 7.5), 1 mM EDTA (pH 8.0), 250 mM sucrose and Complete Protease Inhibitor Cocktail (Roche Diagnostics Corp., Indianapolis, Ill.), and sonicated on ice. Membrane fractions were isolated by ultracentrifugation (100,000×g pellet), resuspended in the same buffer, and frozen (−80° C.) for later use. The protein concentration was determined with the BCA Protein Assay kit (Pierce Biotechnology Inc., Rockford, Ill.). Expression of protein levels was analyzed by immunoblotting with goat polyclonal DGAT2 antibody C-15 and donkey anti-goat IgG HRP (Santa Cruz Biotechnology, Inc., Santa Cruz, Calif.) followed by detection with ECL reagent (GE Healthcare, Piscataway, N.J.).
LC/MS/MS analyses were performed using Thermal Fisher's LX4-TSQ Vantage system. This system consists of an Agilent binary high-performance liquid chromatography (HPLC) pumps and a TSQ Vantage triple quadrupole MS/MS instrument. For each sample, 2 μL samples from the top organic layer of in-plate liquid-liquid extraction were injected onto a Thermo Betabasic C4 column (2.1 mm×20 mm, 5 μm particle size). The samples were then eluted using the following conditions; mobile phase: methanol/water with 0.1% ammonium format=92/8 (v/v), flow rate: 1 mL/min, temperature: 25 C. Data was acquired in positive mode using a heated electrospray ionization (HESI) interface. The operational parameters for the TSQ Vantage MS/MS instrument were a spray voltage of 3000 V, capillary temperature of 280° C., vaporizer temperature 400° C., shealth gas 60 arbitrary unit, Aux gas 40 arbitrary units, S-lens 113 and collision gas 0.16 Pascals. […] (SRM) chromatograms of triolein (Q1:902.9>Q3:602.3) and internal standard (Q1:902.9>Q3:602.3) were collected for 40 sec. The peak area was integrated by Xcalibur Quan software. The ratio between the triolein generated in the reaction and spiked in internal standard was used to generate percentage inhibition and IC50 values. Compound percentage inhibition was calculated by the following formula: Inhibition %/=1−[(compound response−low control)/(high control−low control)]×100%. Potent compounds were titrated and IC50 were calculated by 4 parameter sigmoidal curve fitting formula.
DGAT2 activity was determined by measuring the amount of enzymatic product triolein (1,2,3-Tri(cis-9-octadecenoyl)glycerol) using the membrane prep mentioned above. The assay was carried out in deep well 384 plates in a final volume of 40 μL at rt. The assay mixture contained the following: assay buffer (100 mM Tris.Cl, pH 7.0, 20 mM MgCl2, 5% ethanol), 25 μM of diolein, 10 μM of oleoyl-CoA and 10 ng/μL of DGAT2 membrane.

Sequence of human DGAT2 (hDGAT2) (Q96PD7 whole entry): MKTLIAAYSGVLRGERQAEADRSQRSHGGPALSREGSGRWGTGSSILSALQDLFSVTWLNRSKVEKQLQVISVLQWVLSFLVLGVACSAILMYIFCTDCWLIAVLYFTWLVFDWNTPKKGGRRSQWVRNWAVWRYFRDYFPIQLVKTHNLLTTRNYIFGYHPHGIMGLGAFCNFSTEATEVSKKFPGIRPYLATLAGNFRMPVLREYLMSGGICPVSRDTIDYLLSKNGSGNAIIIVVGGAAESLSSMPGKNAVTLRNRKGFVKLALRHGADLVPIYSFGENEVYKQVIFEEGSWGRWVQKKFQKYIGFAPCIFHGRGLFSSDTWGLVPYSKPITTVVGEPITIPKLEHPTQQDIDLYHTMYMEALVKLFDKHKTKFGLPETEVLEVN

| Structure (SMILES) | IC50 |
| --- | --- |
| O=C(NC1CCS(=O)(=O)C1)c1ccc2c(-c3cccc(Cl)c3)cn(-c3ccc(F)cc3)c2c1 (racemic) [Example 31, 3-(3-chlorophenyl)-N-(1,1-dioxidotetrahydrothiophen-3-yl)-1-(4-fluorophenyl)-1H-indole-6-carboxamide (racemic)] | 0.028 µM |
| Cc1c(-c2ccccc2Cl)c2ccc(C(=O)NC3(C)CCS(=O)(=O)C3)cc2n1-c1ccc(F)cc1 (single isomer, unassigned; enantiomer b) [Example 8-B, 3-(2-chlorophenyl)-1-(4-fluorophenyl)-2-methyl-N-(3-methyl-1,1-dioxidotetrahydrothiophen-3-yl)-1H-indole-6-carboxamide (Enantiomer B)] | 0.692 µM |
| O=C(NC1CCS(=O)(=O)C1)c1ccc2c(-c3cccc(-c4ccccc4)c3)cn(-c3ccc(F)cc3)c2c1 (racemic) [Example 36, 3-biphenyl-3-yl-N-(1,1-dioxidotetrahydrothiophen-3-yl)-1-(4-fluorophenyl)-1H-indole-6-carboxamide (racemic)] | 0.061 µM |
| CC1(NC(=O)c2ccc3c(-c4ccccc4Cl)cn(-c4ccc(F)cc4)c3c2)CCS(=O)(=O)C1 (racemic) [Example 1, 3-(2-chlorophenyl)-1-(4-fluorophenyl)-N-(3-methyl-1,1-dioxidotetrahydrothiophen-3-yl)-1H-indole-6-carboxamide] | 0.0088 µM |
| O=C(N[C@H](CO)c1ccc(C(F)(F)F)nc1)c1ccc2c(-c3ccccc3Cl)cn(-c3ccc(F)cc3)c2c1 [Example 5, (S)-3-(2-chlorophenyl)-1-(4-fluorophenyl)-N-(2-hydroxy-1-(6-(trifluoromethyl)pyridin-3-yl)ethyl)-1H-indole-6-carboxamide] | 0.19 µM |
| Cc1ccc(-c2cn(-c3ccc(F)cc3)c3cc(C(=O)NC4CCS(=O)(=O)C4)ccc23)cc1 (racemic) [Example 55, N-(1,1-dioxidotetrahydrothiophen-3-yl)-1-(4-fluorophenyl)-3-(4-methylphenyl)-1H-indole-6-carboxamide (racemic)] | 0.696 µM |
| O=C(NC1CCS(=O)(=O)C1)c1ccc2c(-c3c(F)cccc3F)cn(-c3ccc(F)cc3)c2c1 (racemic) [Example 48, 3-(2,6-difluorophenyl)-N-(1,1-dioxidotetrahydrothiophen-3-yl)-1-(4-fluorophenyl)-1H-indole-6-carboxamide (racemic)] | 0.053 µM |
| O=C(NC1CCS(=O)(=O)C1)c1ccc2c(-c3cncnc3)cn(-c3ccc(F)cc3)c2c1 (racemic) [Example 50, N-(1,1-dioxidotetrahydrothiophen-3-yl)-1-(4-fluorophenyl)-3-pyrimidin-5-yl-1H-indole-6-carboxamide (racemic)] | 0.321 µM |
| Cc1ccnc(-c2cn(-c3ccc(F)cc3)c3cc(C(=O)NC4(C)CCS(=O)(=O)C4)ccc23)c1 (racemic) [Example 24, 1-(4-fluorophenyl)-N-(3-methyl-1,1-dioxidotetrahydrothiophen-3-yl)-3-(4-methylpyridin-2-yl)-1H-indole-6-carboxamide (racemic)] | 0.571 µM |
| O=C(NC1CCS(=O)(=O)C1)c1ccc2c(-c3c(Cl)cccc3Cl)cn(-c3ccc(F)cc3)c2c1 (racemic) [Example 47, 3-(2,6-dichlorophenyl)-N-(1,1-dioxidotetrahydrothiophen-3-yl)-1-(4-fluorophenyl)-1H-indole-6-carboxamide (racemic)] | 0.942 µM |
| CC1(NC(=O)c2ccc3c(-c4ccccc4Cl)cn(-c4ccc(F)cc4)c3c2)CCS(=O)(=O)C1 (single isomer, unassigned; enantiomer a) [Example 1-A, 3-(2-chlorophenyl)-1-(4-fluorophenyl)-N-(3-methyl-1,1-dioxidotetrahydrothiophen-3-yl)-1H-indole-6-carboxamide (Enantiomer A, fast)] | 0.0056 µM |
| COc1cccc(-c2cn(-c3ccc(F)cc3)c3cc(C(=O)NC4CCS(=O)(=O)C4)ccc23)c1 (racemic) [Example 33, N-(1,1-dioxidotetrahydrothiophen-3-yl)-1-(4-fluorophenyl)-3-(3-methoxyphenyl)-1H-indole-6-carboxamide (racemic)] | 0.004 µM |
| CC1(NC(=O)c2ccc3c(-c4ccccc4Cl)cn(-c4ccc(F)cc4)c3c2)CCS(=O)(=O)C1 (single isomer, unassigned; enantiomer b) [Example 1-B, 3-(2-chlorophenyl)-1-(4-fluorophenyl)-N-(3-methyl-1,1-dioxidotetrahydrothiophen-3-yl)-1H-indole-6-carboxamide (Enantiomer B, slow)] | 0.0066 µM |
| CC1(NC(=O)c2ccc3c(-c4ccccc4Cl)c(C#N)n(-c4ccc(F)cc4)c3c2)CCS(=O)(=O)C1 (single isomer, unassigned; enantiomer a) [Example 9-A, 3-(2-chlorophenyl)-2-cyano-1-(4-fluorophenyl)-N-(3-methyl-1,1-dioxidotetrahydrothiophen-3-yl)-1H-indole-6-carboxamide (Enantiomer A)] | 0.448 µM |
| CC1(NC(=O)c2ccc3c(-c4ccccc4Cl)c(C#N)n(-c4ccc(F)cc4)c3c2)CCS(=O)(=O)C1 (single isomer, unassigned; enantiomer b) [Example 9-B, 3-(2-chlorophenyl)-2-cyano-1-(4-fluorophenyl)-N-(3-methyl-1,1-dioxidotetrahydrothiophen-3-yl)-1H-indole-6-carboxamide (Enantiomer B)] | 0.235 µM |
| COc1ccccc1-c1cn(-c2ccc(F)cc2)c2cc(C(=O)NC3CCS(=O)(=O)C3)ccc12 (racemic) [Example 29, N-(1,1-dioxidotetrahydrothiophen-3-yl)-1-(4-fluorophenyl)-3-(2-methoxyphenyl)-1H-indole-6-carboxamide (racemic)] | 0.223 µM |
| O=C(NC1CCS(=O)(=O)C1)c1ccc2c(-c3cccc(C(F)(F)F)c3)cn(-c3ccc(F)cc3)c2c1 (racemic) [Example 30, N-(1,1-dioxidotetrahydrothiophen-3-yl)-1-(4-fluorophenyl)-3-[3-(trifluoromethyl)phenyl]-1H-indole-6-carboxamide (racemic)] | 0.018 µM |
| CC1(NC(=O)c2ccc3c(-c4cccc(OC(F)F)c4)cn(-c4ncc(F)cn4)c3c2)CCS(=O)(=O)C1 (single isomer, unassigned; enantiomer b) [Example 18-B, 3-(3-(difluoromethoxy)phenyl)-1-(5-fluoropyrimidin-2-yl)-N-(3-methyl-1,1-dioxidotetrahydrothiophen-3-yl)-1H-indole-6-carboxamide (enantiomer B)] | 0.00091 µM |
| O=C(NC1CCS(=O)(=O)C1)c1ccc2c(-c3ccccc3Cl)cn(-c3ccc(F)cc3)c2c1 (single isomer, unassigned) [Example 2-B, 3-(2-chlorophenyl)-N-(1,1-dioxidotetrahydrothiophen-3-yl)-1-(4-fluorophenyl)-1H-indole-6-carboxamide] | 0.03 µM |
| Cc1cccc(-c2cn(-c3ccc(F)cc3)c3cc(C(=O)NC4CCS(=O)(=O)C4)ccc23)c1 (racemic) [Example 34, N-(1,1-dioxidotetrahydrothiophen-3-yl)-1-(4-fluorophenyl)-3-(3-methylphenyl)-1H-indole-6-carboxamide (racemic)] | 0.013 µM |
| Cc1noc(C)c1-c1cn(-c2ccc(F)cc2)c2cc(C(=O)NC3CCS(=O)(=O)C3)ccc12 (racemic) [Example 53, 3-(3,5-dimethylisoxazol-4-yl)-N-(1,1-dioxidotetrahydrothiophen-3-yl)-1-(4-fluorophenyl)-1H-indole-6-carboxamide (racemic)] | 0.502 µM |
| O=C(NC1CCS(=O)(=O)C1)c1ccc2c(-c3cccc(OC(F)(F)F)c3)cn(-c3ccc(F)cc3)c2c1 (racemic) [Example 58, N-(1,1-dioxidotetrahydrothiophen-3-yl)-1-(4-fluorophenyl)-3-[3-(trifluoromethoxy)phenyl]-1H-indole-6-carboxamide (racemic)] | 0.014 µM |
| O=C(NC1CCS(=O)(=O)C1)c1ccc2c(-c3c(F)cccc3Cl)cn(-c3ccc(F)cc3)c2c1 (racemic) [Example 49, 3-(2-chloro-6-fluorophenyl)-N-(1,1-dioxidotetrahydrothiophen-3-yl)-1-(4-fluorophenyl)-1H-indole-6-carboxamide (racemic)] | 0.155 µM |
